Data reported in paper PMC10525445, “Antitrypanosomal Activity of 1,2,3-Triazole-Based Hybrids Evaluated Using In Vitro Preclinical Translational Models” (Biology, 2023).
Like-named read-outs stand apart in the source and are kept apart here.

What was measured:
[1] = tested on: trypomastigote forms of T. cruzi (Dm28c-Luc); test: Trypanocidal activity against trypomastigotes (luciferase luminescence, 24 h); format: cell-based, Trypanosoma cruzi; settings: for IC90 / IC50: Trypanosoma cruzi, Dm28c-Luc, 24 h
Experimental: (§1) A drug screen was carried out with Trypanosoma cruzi clone Dm28c genetically modified to express luciferase (Dm28c-luc), kindly provided by Dr. Cristina Henriques. The genetically modified T. cruzi clone Dm28c (Dm28c-Luc) has the firefly luciferase gene integrated into the genome, stably expressing the luminescent enzyme. The bioluminescent signal, proportional to the number of parasites, is produced by adding a D-luciferin substrate. Trypomastigotes were harvested from supernatants of VERO cell cultures, infected at a ratio of 10:1 parasite/host cells, 4 days post-infection (4 dpi). Parasites were used for phenotypic drug screening procedures. Luminescent parasites are a reliable and sensitive tool that allows precise quantification of parasite load. The use of genetically modified organisms was approved under license CQB 105/99.
All triazole analogs were analyzed for their biological activity against trypomastigote and intracellular amastigote forms of T. cruzi (Dm28c-Luc). Trypomastigotes (1.0 × 10^6 parasites/well) were incubated for 24 h at 37 °C with triazole derivatives and Bz at concentrations ranging from 0.04 to 100 µM. Luciferin (300 µg/mL), a luciferase substrate, was added to parasite suspensions to evaluate trypomastigotes viability. The luminescent signal was measured using a Glomax microplate reader. A maximal DMSO concentration (0.1%) was used as the negative control. The inhibitory concentration 50 (IC50) and 90 (IC90) against T. cruzi, which reduces the number of parasites by 50% and 90%, respectively, was calculated using linear regression. The selectivity index (SI), a ratio that measures the window between toxicity in mammalian cells and anti-T. cruzi activity (SI = CC50/IC50), was also determined.

[2] = tested on: intracellular amastigote forms of T. cruzi (Dm28c-Luc); test: Activity against intracellular amastigotes in infected VERO cells (72 h); format: cell-based, Trypanosoma cruzi; settings: for Intracellular Amastigotes SI: SI = CC50 of VERO cells/IC50 of intracellular amastigotes; for IC50 / IC90: Trypanosoma cruzi, infected VERO cells, 72 h, mean ± SD; for IC50: read-out: Trypanocidal Activity Intracellular Amastigotes IC50; for IC90: read-out: Trypanocidal Activity Intracellular Amastigotes IC90
Experimental: as §1
Activity against intracellular amastigotes was determined in cultures of VERO cells infected by T. cruzi (24 h), as previously described. Briefly, infected cultures were treated for 72 h at 37 °C with different concentrations of triazole derivatives (0.04–100 µM). Then, the culture supernatant was removed, and the viability of the intracellular parasites was evaluated after adding luciferin (300 µg/mL) to the cell monolayer followed by reading using the microplate reader. Anti-T. cruzi activity (IC50 and IC90) and SI values were determined. All experimental assays were performed at least 3 times in duplicate.

[3] = Cytotoxicity on VERO cell monolayers (CellTiter Glo, 72 h); format: cell-based; settings: African green monkey, VERO cell monolayers, ATP level, read-out: Cytotoxicity VERO Cells CC50
Experimental: VERO cells (Rio de Janeiro Cell Bank code 0245) were cultivated in RPMI 1640 medium supplemented with 10% fetal bovine serum (FBS) at 37 °C in a humidified atmosphere of 5% CO2. Confluent monolayers were dissociated with trypsin-EDTA solution (0.025%), and isolated cells were seeded on culture plates or flasks, depending on the experimental assay. The VERO cell cultures were used in cytotoxicity and phenotypic screening assays and for obtaining culture-derived trypomastigotes. The toxic effect of the triazole series was evaluated on VERO cell monolayers. After seeding for 24 hours, VERO cells were treated for 72 h at 37 °C with the 1,2,3-triazole derivatives and Bz, the reference drug, with a range of concentration from 15.62 to 500 µM. Controls were performed with a non-toxic concentration of dimethyl sulfoxide (DMSO; ≤0.1%) used in the experimental assays. Cell viability was determined by measuring ATP level using a CellTiter Glo kit. The luminescence read was performed using a Glomax microplate reader (Promega Corporation, Madison, WI, EUA). The cytotoxicity concentration 50 (CC50), the drug concentration that reduces cell viability by 50%, was calculated using linear regression. […] Cultures were exposed for 72 h to compound concentrations up to 500 µM, following the protocol mentioned above. At least 3 independent assays were performed in duplicate.

[4] = tested on: T. cruzi (Dm28c-Luc)-infected VERO cells; test: Short-term washout assay (3 days treatment, 3 days without compound); format: cell-based, Trypanosoma cruzi; settings: 100 µM
Experimental: (§2) A washout assay was performed to evaluate the capacity of the promising candidates to eliminate all parasites. Thus, VERO cells, seeded in 96-well plates at a density of 1.5 × 10^4 cells/well, were infected with T. cruzi (Dm28c-Luc) at a 10:1 parasite–host cell ratio (24 h). Two treatment schedules were performed: 3 days with 30, 50, and 100 µM concentrations and 10 days with 30 and 60 times the IC50 concentrations. After treatment, the cultures were washed with PBS and kept for the same period in RPMI 1640 medium supplemented with 10% FBS without compound pressure. The culture medium was changed every 3 or 4 days during the time course, and the supernatant was harvested for luminescence reading after luciferin (300 µg/mL) addition. At the endpoint, the monolayers were also evaluated for parasite load. The luminescent signal was read using a Glomax reader. Bz (100 µM) and DMSO (≤1%) were used as positive and negative controls, respectively.

[5] = tested on: T. cruzi (Dm28c-Luc)-infected VERO cells; test: Long-term washout assay (10 days treatment, 10 days without compound); format: cell-based, Trypanosoma cruzi; settings: 10 days treatment (30 or 60 times IC50; Bz 100 µM) + 10 days without compound
Experimental: as §2

[6] = tested on: VERO cells infected with Silvio X10/7; set-up: method as in PMID 30001347; settings: cited from earlier work
[7] = mean ± SD, read-out: Trypanocidal Activity Trypomastigotes IC50

Row | Compound | IC90 ([1]; mean ± SD) [µM] | IC50 [1, 7] [µM] | IC50 [2] [µM] | CC50 at 72 h [3] [µM] | further results
1 | O=C(Cn1ccnc1[N+](=O)[O-])NCc1ccccc1 [Bz, benznidazole, reference compound] | > 100 | 22.8 ± 4.12 | 4.67 ± 0.22 | > 500 | IC50 ([1]; read-out: pIC50 against trypomastigotes (converted)): 22.9 µM; Intracellular Amastigotes SI [2]: >107; IC90 [2]: 21.7 ± 2.37 µM; effect on parasite load / infection progression [4]: potentially inhibited the infection progression; infection reactivation / sterile cure [5]: failed to induce a sterile cure; relapse ([6]; 12.5 to 50 times EC50 for 8 days): did not prevent relapse; recrudescence ([6]; 16 days of treatment with 25 to 50 times EC50, followed for 60 days): lack of recrudescence
2 | Cc1ccccc1-n1cc(C(C)(C)O)nn1 [Triazole 1a, 2-(1-(o-Tolyl)-1H-1,2,3-triazole-4-yl)propan-2-ol] | > 100 | > 100 | > 100 | > 500 | –
3 | Clc1ccc(-n2cc(-c3ccccc3)nn2)cc1 [Triazole 1b, 1-(4-Chlorophenyl)-4-phenyl-1H-1,2,3-triazole] | > 100 | > 100 | > 100 | > 500 | –
4 | Brc1ccc(-n2cc(-c3ccccc3)nn2)cc1 [Triazole 1c, 1-(4-Bromophenyl)-4-phenyl-1H-1,2,3-triazole] | > 100 | > 100 | > 100 | > 500 | –
5 | c1ccc(Cn2cc(-c3ccccc3)nn2)cc1 [Triazole 1e, 1-Benzyl-4-phenyl-1H-1,2,3-triazole] | > 100 | > 100 | 83.2 ± 2.27 | > 500 | Intracellular Amastigotes SI [2]: >6
6 | OC1(c2cn(-c3ccccc3)nn2)CCCCC1 [Triazole 1h, 1-(1-Phenyl-1H-1,2,3-triazole-4-yl)cyclohexan-1-ol] | – | > 100 | > 100 | > 500 | –
7 | O=[N+]([O-])c1ccc(-n2cc(C3(O)CCCCC3)nn2)cc1 [Triazole 1i, 1-(1-(4-Nitrophenyl)-1H-1,2,3-triazole-4-yl)cyclohexan-1-ol] | – | > 100 | > 100 | > 500 | –
8 | COc1ccc(-n2cc(C3(O)CCCCC3)nn2)cc1 [Triazole 1j, 1-(1-(4-Methoxyphenyl)-1H-1,2,3-triazole-4-yl)cyclohexan-1-ol] | – | > 100 | > 100 | > 500 | –
9 | Cc1ccccc1-n1cc(C2(O)CCCCC2)nn1 [Triazole 1k, 1-(1-(o-Tolyl)-1H-1,2,3-triazole-4-yl)cyclohexan-1-ol] | – | > 100 | > 100 | > 500 | melting point: 201 to 203 °C
10 | O=C(OCc1cn(-c2ccccc2Cl)nn1)c1ccccc1 [Triazole 1l, (1-(2-Chlorophenyl)-1H-1,2,3-triazole-4-yl)methyl benzoate] | > 100 | 80.4 ± 3.56 | 77.9 ± 2 | 236 ± 17.9 | Trypomastigotes SI ([1]; SI = CC50 of VERO cells/IC50 of trypomastigotes): 2.94; Intracellular Amastigotes SI [2]: 3.03; IC90 [2]: > 100 µM
11 | Cc1ccccc1-n1cc(COC(=O)c2ccccc2)nn1 [Triazole 1m, (1-(o-Tolyl)-1H-1,2,3-triazole-4-yl)methyl benzoate] | – | > 100 | > 100 | > 500 | –
12 | COc1ccc(-n2cc(CO)nn2)cc1 [Triazole 1n, (1-(4-Methoxyphenyl)-1H-1,2,3-triazole-4-yl)methanol] | – | > 100 | > 100 | > 500 | –
